Test results reported in patent US20250320205A1, “STAT6 DEGRADERS” (Gilead Sciences, Inc., priority 2024, published 2025).
pEC50: −log10 of the molar value.

Key:
[1] = target: T1, STAT6 (Homo sapiens, UniProt P42226); assay: STAT6 Degrader Assay (HiBiT based, HeLa LgBiT clone 4.14 cells); type: cell-based; details: for DC50: geometric mean across assay runs and compound batches, DC50 provided for test compounds with >80% Emax, read-out: STAT6 degradation DC50
T1 construct: These cells express endogenous STAT6; host or cells: HeLa LgBiT clone 4.14 (CRISPR knock-in of HiBiT into the endogenous STAT6 gene)
T1 sequence (P42226 1-847): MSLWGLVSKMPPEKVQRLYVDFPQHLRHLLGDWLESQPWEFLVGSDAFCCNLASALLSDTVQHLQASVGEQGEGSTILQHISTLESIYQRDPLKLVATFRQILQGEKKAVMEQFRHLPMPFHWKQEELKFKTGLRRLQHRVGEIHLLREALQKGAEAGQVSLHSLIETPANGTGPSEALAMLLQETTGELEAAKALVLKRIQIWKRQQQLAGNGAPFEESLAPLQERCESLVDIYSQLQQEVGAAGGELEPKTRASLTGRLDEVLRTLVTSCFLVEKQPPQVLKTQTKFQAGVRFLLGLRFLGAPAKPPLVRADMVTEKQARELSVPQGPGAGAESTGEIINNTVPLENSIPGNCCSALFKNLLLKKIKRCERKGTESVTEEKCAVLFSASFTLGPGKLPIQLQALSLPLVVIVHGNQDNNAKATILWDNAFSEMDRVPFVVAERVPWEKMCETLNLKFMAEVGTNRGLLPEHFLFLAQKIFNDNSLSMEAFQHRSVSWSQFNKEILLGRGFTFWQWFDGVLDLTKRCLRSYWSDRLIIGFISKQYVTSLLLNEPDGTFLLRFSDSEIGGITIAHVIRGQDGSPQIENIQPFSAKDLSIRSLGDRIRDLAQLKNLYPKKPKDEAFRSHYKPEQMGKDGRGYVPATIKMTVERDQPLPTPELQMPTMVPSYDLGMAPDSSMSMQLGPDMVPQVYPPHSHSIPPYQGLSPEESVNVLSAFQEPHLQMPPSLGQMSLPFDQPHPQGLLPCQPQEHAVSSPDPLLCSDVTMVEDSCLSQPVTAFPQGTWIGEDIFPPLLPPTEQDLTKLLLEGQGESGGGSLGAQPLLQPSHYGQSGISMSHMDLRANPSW
Procedure, shortened: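 DC50 (nM) comes from NanoBiT luminescence of HiBiT-knock-in STAT6 in HeLa LgBiT clone 4.14 cells, treated 4-24 h at 37° C. Luminescence reflects non-degraded STAT6, with 50 μM terfenadine wells taken as full degradation.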

[2] = system: Eotaxin-3 (CCL26) release; assay: Human Whole Blood Eotaxin-3 Assay (IL-4 stimulated); type: cell-based; details: Homo sapiens; geometric mean across assay runs and compound batches; EC50 provided for test compounds with >80% Emax
Procedure, shortened: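 Lithium-heparin human whole blood preincubated 2 h at 37 °C with compounds (4-fold dilutions, triplicate, 0.5% DMSO final). Then stimulated with 400 pM final recombinant human IL-4 for 48 h. Eotaxin-3 in supernatant quantified by MSD immunoassay.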

What does the source list for `CNc1cc(=O)n(-c2ccnc3c2cc([C@H](C)N2CC=C(c4c(C)cc(C(=O)N5CCn6nc(CC7(O)CCN(c8ccc(NC9CCC(=O)NC9=O)c(OC)c8)CC7)cc6C5)cc4F)CC2)n3C)cc1F` (stereo partly drawn) [Example 2g7, 3-((4-(4-((5-(3-fluoro-4-(1-((S)-1-(4-(5-fluoro-4-(meth-ylamino)-2-oxopyridin-1(2H)-yl)-1-methyl-1H-pyrrolo[2,3-b]pyridin-2-yl)ethyl)-1,2,3,6-tetrahydropyridin-4-yl)-5-methylbenzoyl)-4,5,6,7-tetra-hydropyrazolo[1,5-a]pyrazin-2-yl)methyl)-4-hydroxy-piperidin-1-yl)-2-methoxy-phenyl)amino)-piperidine-2,6-dione]?
DC50 [1]: 10.3 nM; pEC50 [2]: 7.81

`CNc1ccn(-c2ccnc3c2cc([C@H](C)N2CC=C(c4c(C)cc(C(=O)N5CCC(CN6CCN(c7ncc(N[C@H]8CCC(=O)NC8=O)cc7F)C[C@H]6C)CC5)cc4F)CC2)n3C)c(=O)c1` (single isomer, unassigned) [Example 2g114] was tested. Which DC50 [1] did it give?
The DC50 was 5.8 nM.

And the pEC50 [2]?
The pEC50 was 8.19.

For `CNc1cc(=O)n(-c2ccnc3c2cc([C@H](C)N2CC=C(c4c(F)cc(C(=O)N5CCC(CN6CCN(c7ccc(N[C@@H]8CCC(=O)NC8=O)cc7F)CC6)CC5)cc4F)CC2)n3C)cc1F` (single isomer, unassigned) [Example 2g121], which DC50 [1] is on record?
Its DC50 is 9.6 nM.

And the pEC50 [2]?
The pEC50 was 7.51.

How did the DC50 [1] turn out when `CNc1cc(=O)n(-c2ccnc3c2cc([C@H](C)N2CC=C(c4c(C)cc(C(=O)N5CCn6nc(CN7CCC(c8ccc(N[C@H]9CCC(=O)NC9=O)cc8F)CC7)cc6C5)cc4F)CC2)n3C)cc1F` (single isomer, unassigned) [Example 2g6] was run?
The DC50 was 0.3 nM.

What about the pEC50 [2] of the same compound?
Its pEC50 is 8.82.

Which DC50 [1] does the source give for `CNc1cc(=O)n(-c2ccnc3c2cc([C@H](C)N2CC=C(c4c(F)cc(C(=O)N5CCn6nc(CN7CCC(c8ccc(NC9CCC(=O)NC9=O)cc8F)CC7)cc6C5)cc4F)CC2)n3C)cc1F` (stereo partly drawn) [Example 2g112, 3-((4-(1-((5-(3,5-difluoro-4-(1-((S)-1-(4-(5-fluoro-4-(methylamino)-2-oxopyridin-1(2H)-yl)-1-methyl-1H-pyr-rolo[2,3-b]pyridin-2-yl)ethyl)-1,2,3,6-tetrahydropyridin-4-yl)benzoyl)-4,5,6,7-tetra-hydropyrazolo[1,5-a]pyrazin-2-yl)methyl)piperidin-4-yl)-3-fluorophenyl)amino)piperi-dine-2,6-dione] here?
Its DC50 is 1.1 nM.

What about the pEC50 [2] of the same compound?
The pEC50 was 9.05.

Which DC50 [1] does the source give for `Cc1cc(C(=O)N2CCn3nc(CN4CCC(c5ccc(NC6CCC(=O)NC6=O)cc5F)CC4)cc3C2)cc(F)c1C1=CCN([C@@H](C)c2cc3c(-n4cc(F)c5c(c4=O)CCN5)ccnc3n2C)CC1` (stereo partly drawn) [Example 2g14, 3-((3-fluoro-4-(1-((5-(3-fluoro-4-(1-((S)-1-(4-(7-fluoro-4-oxo-1,2,3,4-tetra-hydro-5H-pyrrolo[3,2-c]pyridin-5-yl)-1-methyl-1H-pyrrolo[2,3-b]pyridin-2-yl)-ethyl)-1,2,3,6-tetrahydro-pyridin-4-yl)-5-methylbenzo-yl)-4,5,6,7-tetrahydropyrazolo [1,5-a]pyrazin-2-yl)methyl)-piperidin-4-yl)phenyl)amino)-piperidine-2,6-dione] here?
The DC50 was 2.2 nM.

And the pEC50 [2]?
The pEC50 was 8.46.

What does the source list for `CNc1ccn(-c2ccnc3c2cc([C@H](C)N2CC=C(c4c(C)cc(C(=O)N5CCn6nc(CN7CCC(c8ccc(NC9CCC(=O)NC9=O)cc8F)CC7)cc6C5)cc4F)CC2)n3C)c(=O)c1` (stereo partly drawn) [Example 2g15, 3-((3-fluoro-4-(1-((5-(3-fluoro-5-methyl-4-(1-((S)-1-(1-methyl-4-(4-(methyl-amino)-2-oxopyridin-1(2H)-yl)-1H-pyrrolo[2,3-b]pyridin-2-yl)ethyl)-1,2,3,6-tetrahydro-pyridin-4-yl)benzoyl)-4,5,6,7-tetrahydropyrazolo[1,5-a]pyr-azin-2-yl)methyl)piperidin-4-yl)phenyl)amino)piperidine-2,6-dione]?
DC50 [1]: 0.2 nM; pEC50 [2]: 10.00

How did the DC50 [1] turn out when `CNc1ccn(-c2ccnc3c2cc(CN2CCC(c4c(F)cc(C(=O)N5CCC(CN6CCN(c7ccc(N[C@@H]8CCC(=O)NC8=O)cc7F)CC6)CC5)cc4F)CC2)n3C)c(=O)c1` (single isomer, unassigned) [Example 2g57] was run?
The DC50 was 9.3 nM.

What about the pEC50 [2] of the same compound?
The pEC50 was 7.30.

`CNc1ccn(-c2ccnc3c2cc([C@H](C)N2CC=C(c4c(F)cc(C(=O)N5CCn6nc(CN7CCC(c8ccc(NC9CCC(=O)NC9=O)cc8F)CC7)cc6C5)cc4F)CC2)n3C)c(=O)c1` (stereo partly drawn) [Example 2g108, 3-((4-(1-((5-(3,5-difluoro-4-(1-((S)-1-(1-methyl-4-(4-(methylamino)-2-oxopyridin-1(2H)-yl)-1H-pyrrolo[2,3-b]pyridin-2-yl)ethyl)-1,2,3,6-tetrahydropyridin-4-yl)benzo-yl)-4,5,6,7-tetrahydropyrazolo [1,5-a]pyrazin-2-yl)methyl)-piperidin-4-yl)-3-fluorophen-yl)amino)piperidine-2,6-dione] was tested. Which DC50 [1] did it give?
The DC50 was 0.5 nM.

And the pEC50 [2]?
The pEC50 was 9.15.

For `CNc1cc(=O)n(-c2ccnc3c2cc(CN2CCC(c4c(F)cc(C(=O)N5CCC(CN6CCN(c7ccc(N[C@@H]8CCC(=O)NC8=O)cc7F)CC6)CC5)cc4F)CC2)n3C)cc1F` (single isomer, unassigned) [Example 2g33], which DC50 [1] is on record?
Its DC50 is 50.8 nM.

And the pEC50 [2]?
Its pEC50 is 7.19.

Which DC50 [1] does the source give for `CNc1ccn(-c2ccnc3c2cc(CN2CCC(c4c(F)cc(C(=O)N5CCn6nc(CN7CCC(c8ccc(NC9CCC(=O)NC9=O)cc8F)CC7)cc6C5)cc4F)CC2)n3C)c(=O)c1` (stereo not drawn) [Example 2g100, 3-((4-(1-((5-(3,5-difluoro-4-(1-((1-methyl-4-(4-(methyl-amino)-2-oxopyridin-1(2H)-yl)-1H-pyrrolo[2,3-b]pyridin-2-yl)methyl)piperidin-4-yl)-benzoyl)-4,5,6,7-tetrahydro-pyrazolo[1,5-a]pyrazin-2-yl)-methyl)piperidin-4-yl)-3-fluorophenyl)amino)piperi-dine-2,6-dione] here?
The DC50 was 1.2 nM.

What about the pEC50 [2] of the same compound?
The pEC50 was 8.74.

`CNc1ccn(-c2ccnc3c2cc([C@H](C)N2CCC(c4ccc(C(=O)N5CCC(CN6CCN(c7ccc(NC8CCC(=O)NC8=O)cc7F)CC6)CC5)cc4)CC2)n3C)c(=O)c1` (stereo partly drawn) [Example 2c31, 3-((3-fluoro-4-(4-((1-(4-(1-((S)-1-(1-methyl-4-(4-(meth-ylamino)-2-oxopyridin-1(2H)-yl)-1H-pyrrolo[2,3-b]pyridin-2-yl)ethyl)piperidin-4-yl)-benzoyl)piperidin-4-yl)meth-yl)piperzin-1-yl)phenyl)-amino)-piperidine-2,6-dione] was tested. Which Emax ([1]; HeLa, maximal STAT6 degradation) did it give?
Its Emax is 70 to 80%.

And the pEC50 [2]?
Its pEC50 is 7.65.

With `Cc1cc(C(=O)N2CCC(CN3CCN(c4ccc(NC5CCC(=O)NC5=O)cc4F)CC3)CC2)cc(F)c1C1=CCN(Cc2cc3c(-n4ccc5c(c4=O)CCN5)ccnc3n2C)CC1` (stereo not drawn) [Example 2g59, 3-((3-fluoro-4-(4-((1-(3-fluoro-5-methyl-4-(1-((1-methyl-4-(4-oxo-1,2,3,4-tetrahydro-5H-pyrrolo[3,2-c]pyridin-5-yl)-1H-pyrrolo [2,3-b]pyridin-2-yl)methyl)-1,2,3,6-tetrahydropyridin-4-yl)benzoyl)piperidin-4-yl)-methyl)piperazin-1-yl)phen-yl)amino)piperidine-2,6-dione] as the compound, how does the DC50 [1] read?
Its DC50 is 6.1 nM.

What about the pEC50 [2] of the same compound?
The pEC50 was 7.69.

For `CNc1ccn(-c2ccnc3c2cc([C@H](C)N2CC=C(c4c(C)cc(C(=O)N5CCC(CN6CCN(c7ncc(NC8CCC(=O)NC8=O)cc7F)C[C@H]6C)CC5)cc4F)CC2)n3C)c(=O)c1` (stereo partly drawn) [Example 2g113, 3-((5-fluoro-6-((R)-4-((1-(3-fluoro-5-methyl-4-(1-((S)-1-(1-methyl-4-(4-(methyl-amino)-2-oxopyridin-1(2H)-yl)-1H-pyrrolo[2,3-b]pyridin-2-yl)ethyl)-1,2,3,6-tetrahydro-pyridin-4-yl)benzoyl)piperi-din-4-yl)methyl)-3-methyl-piperazin-1-yl)pyridin-3-yl)-amino)piperidine-2,6-dione], which DC50 [1] is on record?
The DC50 was 3.5 nM.

What about the pEC50 [2] of the same compound?
The pEC50 was 7.86.

Which results are given for `CNc1ccn(-c2ccnc3c2cc([C@H](C)N2CCC(c4c(F)cc(C(=O)N5CCn6nc(CN7CCC(c8ccc(NC9CCC(=O)NC9=O)cc8F)CC7)cc6C5)cc4F)CC2)n3C)c(=O)c1` (stereo partly drawn) [Example 2g109, 3-((4-(1-((5-(3,5-difluoro-4-(1-((S)-1-(1-methyl-4-(4-(methylamino)-2-oxopyridin-1(2H)-yl)-1H-pyrrolo[2,3-b]pyridin-2-yl)ethyl)piperidin-4-yl)benzoyl)-4,5,6,7-tetra-hydropyrazolo[1,5-a]pyrazin-2-yl)methyl)piperidin-4-yl)-3-fluorophenyl)amino)piperi-dine-2,6-dione]?
DC50 [1]: 0.4 nM; pEC50 [2]: 9.52
